Test results: ChEMBL document CHEMBL5728630, “Aryl, heteroaryl, and heterocyclic pharmaceutical compounds for treatment of medical disorders” (2021)

Target: Complement factor D (Homo sapiens, UniProt P00746)
Assay: Factor D Assay: Human Factor D (purified from human serum, Complement Technology, Inc.) at 80 nM final concentration is incubated with test compound at various concentrations for 5 min at room temperature in 50 mM Tris, 1M NaCl, pH 7.5. A synthetic substrate Z-L-Lys-SBz and DTNB (Ellman's reagent) are added to final concentrations of 100 μM each. Absorbance at 405 nm (A405) is recorded at 30 second intervals for 30 min using a microplate spectrophotometer. IC50 values are calculated by nonlinear regression of complement Factor D reaction rates as a function of test compound concentration.

Complement factor D, sequence (P00746 whole entry): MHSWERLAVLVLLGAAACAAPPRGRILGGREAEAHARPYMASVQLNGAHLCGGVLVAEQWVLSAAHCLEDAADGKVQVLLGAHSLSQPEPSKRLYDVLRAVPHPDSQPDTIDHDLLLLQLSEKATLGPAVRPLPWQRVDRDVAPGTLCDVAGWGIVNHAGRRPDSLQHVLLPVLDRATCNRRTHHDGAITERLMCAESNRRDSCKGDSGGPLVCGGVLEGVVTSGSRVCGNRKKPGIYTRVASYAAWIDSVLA

Compound	IC50 [nM]
CC(=O)c1nn(CC(=O)N2[C@H](C(=O)NCc3ccccc3C)C[C@@]3(C)C[C@@H]23)c2c(C)cc(-c3cnc(C)nc3)cc12	< 1000
CC(=O)c1nn(CC(=O)N2[C@H](C(=O)NCc3ccncc3)C[C@@]3(C)C[C@@H]23)c2c(C)cc(-c3cnc(C)nc3)cc12	< 1000
CC(=O)c1nn(CC(=O)N2[C@H](C(=O)NCCC3CCCCC3)C[C@@]3(C)C[C@@H]23)c2c(C)cc(-c3cnc(C)nc3)cc12	< 1000
CC(=O)c1nn(CC(=O)N2[C@H](C(=O)NCc3cccc(C)c3)C[C@@]3(C)C[C@@H]23)c2c(C)cc(-c3cnc(C)nc3)cc12	< 1000
CC(=O)c1nn(CC(=O)N2[C@H](C(=O)NCc3ccc(C)cc3)C[C@@]3(C)C[C@@H]23)c2c(C)cc(-c3cnc(C)nc3)cc12	< 1000
CC(=O)c1nn(CC(=O)N2[C@H](C(=O)Nc3cc(C(=O)O)cc(Br)n3)C[C@@]3(C)C[C@@H]23)c2c(CN)cc(-c3cnc(C)nc3)cc12	< 1000
CC(=O)c1nn(CC(=O)N2[C@H](C(=O)NCc3cccnn3)C[C@@]3(C)C[C@@H]23)c2c(C)cc(-c3cnc(C)nc3)cc12	< 1000
CC(=O)c1nn(CC(=O)N2[C@H](C(=O)NCc3ccccn3)C[C@@]3(C)C[C@@H]23)c2c(C)cc(-c3cnc(C)nc3)cc12	< 1000
CC(=O)c1nn(CC(=O)N2[C@H](C(=O)NCCN3CCCCC3)C[C@@]3(C)C[C@@H]23)c2c(C)cc(-c3cnc(C)nc3)cc12	> 10000
CC(=O)c1nn(CC(=O)N2[C@H](C(=O)NCc3cccnc3)C[C@@]3(C)C[C@@H]23)c2c(C)cc(-c3cnc(C)nc3)cc12	< 1000
CC(=O)c1nn(CC(=O)N2[C@H](C(=O)NCc3cncnc3)C[C@@]3(C)C[C@@H]23)c2c(C)cc(-c3cnc(C)nc3)cc12	< 1000
CC(=O)c1nn(CC(=O)N2[C@H](C(=O)NCc3ncccn3)C[C@@]3(C)C[C@@H]23)c2c(C)cc(-c3cnc(C)nc3)cc12	< 1000
CC(=O)c1nn(CC(=O)N2[C@H](C(=O)Nc3nc(Br)ccc3C)C[C@@]3(C)C[C@@H]23)c2ccc(-c3cnc(C)nc3)cc12 [VEMIRCOPAN]	> 10000
